From US20230104936A1, “TRPML MODULATORS” (Casma Therapeutics, Inc., priority 2019, published 2023)

What follows are compounds tested on TFEB (assay: TFEB nuclear translocation assay, HeLa wt cells). Settings: Homo sapiens, HeLa, 2 h, 2 hrs compound treatment, Table 1 does not say HeLa wt or TRPML1 KO.
Assay type: cell-based
Summary of the method: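 AC50 derived from the ratio of nuclear to perinuclear ring (−5 μm) anti-TFEB immunofluorescence, imaged at ×20 over four fields per well. HeLa wt or TRPML1 KO cells were exposed to compounds for 2 hrs at 37° C, then PFA-fixed and counterstained with Hoechst.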
With `CN(C)S(=O)(=O)c1ccc(S(=O)(=O)Nc2cccc(C(F)F)c2N2CCC3(CC2)COC(C)(C)C3)cc1` [Compound A-753, N4-[3-(difluoromethyl)-2-{3,3-dimethyl-2-oxa-8-azaspiro[4.5]decan-8-yl}phenyl]-N1,N1-dimethylbenzene-1,4-disulfonamide] the AC50 was at most 2 µM. `C[C@@H]1CN(C(=O)C2CCN(c3ccccc3NS(=O)(=O)c3ccc(S(=O)(=O)N(C)C)cc3)CC2)C[C@H](C)O1` [Compound A-754, N4-(2-{4-[(2R,6S)-2,6-dimethylmorpholine-4-carbonyl]piperidin-1-yl}phenyl)-N1,N1-dimethylbenzene-1,4-disulfonamide] gave an AC50 of 2.01 to 8 µM. Work on `C[C@@H]1CN(CC2CCN(c3c(F)cccc3NS(=O)(=O)c3ccc(S(=O)(=O)N(C)C)cc3)CC2)C[C@H](C)O1` [Compound A-755, N4-[2-(4-{[(2R,6S)-2,6-dimethylmorpholin-4-yl]methyl}piperidin-1-yl)-3-fluorophenyl]-N1,N1-dimethylbenzene-1,4-disulfonamide] yielded an AC50 of at most 2 µM. Work on `Cc1nc(C)c(S(=O)(=O)Nc2ccccc2N2CCC(CN3C[C@@H](C)O[C@@H](C)C3)CC2)s1` [Compound A-756, N-[2-(4-{[(2R,6S)-2,6-dimethylmorpholin-4-yl]methyl}piperidin-1-yl)phenyl]-2,4-dimethyl-1,3-thiazole-5-sulfonamide] yielded an AC50 of 2.01 to 8 µM. `Cc1ccc(N2CCOCC2)c(NS(=O)(=O)c2ccc(S(=O)(=O)N(C)C)cc2)c1` [Compound A-757, N1,N1-dimethyl-N4-[5-methyl-2-(morpholin-4-yl)phenyl]benzene-1,4-disulfonamide] was tested, and the AC50 was at most 2 µM. Compound `C[C@@H]1CN(CC2CCN(c3c(F)cccc3NS(=O)(=O)c3ccc(S(=O)(=O)C(F)F)cc3)CC2)C[C@H](C)O1` [Compound A-758, 4-difluoromethanesulfonyl-N-[2-(4-{[(2R,6S)-2,6-dimethylmorpholin-4-yl]methyl}piperidin-1-yl)-3-fluorophenyl]benzene-1-sulfonamide] has an AC50 of at most 2 µM. In the case of `C[C@@H]1CN(CC2CCN(c3c(F)cccc3NS(=O)(=O)c3ccc4c(c3)CCC4)CC2)C[C@H](C)O1` [Compound A-759, N-[2-(4-{[(2R,6S)-2,6-dimethylmorpholin-4-yl]methyl}piperidin-1-yl)-3-fluorophenyl]-2,3-dihydro-1H-indene-5-sulfonamide], the AC50 is reported as at most 2 µM. Compound `O=S(=O)(Nc1ccccc1N1CCOCC1)c1ccc2c(c1)CCC2` [Compound A-760, N-[2-(morpholin-4-yl)phenyl]-2,3-dihydro-1H-indene-5-sulfonamide] has an AC50 of 2.01 to 8 µM. With `CN(C)S(=O)(=O)c1ccc(S(=O)(=O)Nc2ccccc2N2CCC(C(=O)N3CCOCC3)CC2)cc1` [Compound A-761, N1,N1-dimethyl-N4-{2-[4-(morpholine-4-carbonyl)piperidin-1-yl]phenyl}benzene-1,4-disulfonamide] the AC50 was at least 10 µM. `CN(C)S(=O)(=O)c1ccc(S(=O)(=O)Nc2cccc(F)c2N2CCC(CN3CC4CCC(C3)O4)CC2)cc1` [Compound A-762, N4-{3-fluoro-2-[4-({8-oxa-3-azabicyclo[3.2.1]octan-3-yl}methyl)piperidin-1-yl]phenyl}-N1,N1-dimethylbenzene-1,4-disulfonamide] gave an AC50 of at most 2 µM. `CN1CC2(CCN(c3c(F)cccc3NS(=O)(=O)c3ccc(S(=O)(=O)N(C)C)cc3)CC2)OC1=O` [Compound A-764, N4-(3-fluoro-2-{3-methyl-2-oxo-1-oxa-3,8-diazaspiro[4.5]decan-8-yl}phenyl)-N1,N1-dimethylbenzene-1,4-disulfonamide] showed an AC50 of 2.01 to 8 µM. For `C[C@@H]1CN(CC2CCN(c3c(F)cccc3NS(=O)(=O)c3ccc(S(=O)(=O)N4CCC4)cc3)CC2)C[C@H](C)O1` [Compound A-765, 4-(azetidine-1-sulfonyl)-N-[2-(4-{[(2R,6S)-2,6-dimethylmorpholin-4-yl]methyl}piperidin-1-yl)-3-fluorophenyl]benzene-1-sulfonamide], the AC50 was at most 2 µM. For `C[C@@H]1CN(CC2CCN(c3c(F)cccc3NS(=O)(=O)c3ccc(C(F)F)cc3)CC2)C[C@H](C)O1` [Compound A-766, 4-(difluoromethyl)-N-[2-(4-{[(2R,6S)-2,6-dimethylmorpholin-4-yl]methyl}piperidin-1-yl)-3-fluorophenyl]benzene-1-sulfonamide], the AC50 was at most 2 µM. `C[C@@H]1CN(CC2CCN(c3c(F)cccc3NS(=O)(=O)C3(c4ccccc4)CC3)CC2)C[C@H](C)O1` [Compound A-767, N-[2-(4-{[(2R,6S)-2,6-dimethylmorpholin-4-yl]methyl}piperidin-1-yl)-3-fluorophenyl]-1-phenylcyclopropane-1-sulfonamide] showed an AC50 of at most 2 µM. With `Cc1nc(C2CC2)sc1S(=O)(=O)Nc1ccccc1N1CCC(CN2C[C@@H](C)O[C@@H](C)C2)CC1` [Compound A-768, 2-cyclopropyl-N-[2-(4-{[(2R,6S)-2,6-dimethylmorpholin-4-yl]methyl}piperidin-1-yl)phenyl]-4-methyl-1,3-thiazole-5-sulfonamide] the AC50 was at most 2 µM. Compound `C[C@@H]1CN(CC2CCN(c3c(F)cccc3NS(=O)(=O)c3ccc(S(=N)(=O)N(C)C)cc3)CC2)C[C@H](C)O1` (stereo partly drawn) [Compound A-769, N-(2-(4-(((2S,6R)-2,6-dimethylmorpholino)methyl)piperidin-1-yl)-3-fluorophenyl)-4-(N,N-dimethylsulfamimidoyl)benzene-sulfonamide] has an AC50 of at most 2 µM. `CN(C)S(=O)(=O)c1ccc(S(=O)(=O)Nc2ccccc2N2CCOCC2)cc1` [Compound A-770, N1,N1-dimethyl-N4-[2-(morpholin-4-yl)phenyl]benzene-1,4-disulfonamide] gave an AC50 of at least 10 µM. Compound `Cc1ccc(S(=O)(=O)Nc2cccc(F)c2N2CCC(CN3C[C@@H](C)O[C@@H](C)C3)CC2)cc1` [Compound A-771, N-[2-(4-{[(2R,6S)-2,6-dimethylmorpholin-4-yl]methyl}piperidin-1-yl)-3-fluorophenyl]-4-methylbenzene-1-sulfonamide] has an AC50 of at most 2 µM. `C[C@@H]1CN(CC2CCN(c3ccccc3NS(=O)(=O)c3cnn(CC4CC4)c3)CC2)C[C@H](C)O1` [Compound A-772, 1-(cyclopropylmethyl)-N-[2-(4-[(2R,6S)-2,6-dimethylmorpholin-4-yl]methylpiperidin-1-yl)phenyl]-1H-pyrazole-4-sulfonamide] was tested, and the AC50 was 8.01 to 9.99 µM. In the case of `CN(C)S(=O)(=O)c1ccc(S(=O)(=O)Nc2cccc(F)c2N2CCC(CN3CCCC(F)(F)C3)CC2)cc1` [Compound A-773, N4-(2-{4-[(3,3-difluoropiperidin-1-yl)methyl]piperidin-1-yl}-3-fluorophenyl)-N1,N1-dimethylbenzene-1,4-disulfonamide], the AC50 is reported as at most 2 µM. For `CN(C)S(=O)(=O)c1ccc(S(=O)(=O)Nc2cccc(F)c2N2CCC(CN3CCC(F)(F)C3)CC2)cc1` [Compound A-774, N4-(2-{4-[(3,3-difluoropyrrolidin-1-yl)methyl]piperidin-1-yl}-3-fluorophenyl)-N1,N1-dimethylbenzene-1,4-disulfonamide], the AC50 was at most 2 µM. For `CC(c1cccnc1N1CCC2(CC1)COC(C)(C)C2)S(=O)(=O)c1ccc(S(=O)(=O)N(C)C)cc1` (stereo not drawn) [Compound A-775, 4-[1-(2-{3,3-dimethyl-2-oxa-8-azaspiro[4.5]decan-8-yl}pyridin-3-yl)ethanesulfonyl]-N,N-dimethylbenzene-1-sulfonamide], the AC50 was 8.01 to 9.99 µM. `C[C@@H]1CN(CC2CCN(c3c(F)cccc3NS(=O)(=O)c3ccc(S(C)(=O)=O)cc3)CC2)C[C@H](C)O1` [Compound A-776, N-[2-(4-{[(2R,6S)-2,6-dimethylmorpholin-4-yl]methyl}piperidin-1-yl)-3-fluorophenyl]-4-methanesulfonylbenzene-1-sulfonamide] was tested, and the AC50 was at most 2 µM. Work on `COCC1(C(F)(F)F)CCN(c2ccccc2NS(=O)(=O)c2ccc(S(=O)(=O)N(C)C)cc2)CC1` [Compound A-777, N4-2-[4-(methoxymethyl)-4-(trifluoromethyl)piperidin-1-yl]phenyl-N1,N1-dimethylbenzene-1,4-disulfonamide] yielded an AC50 of at most 2 µM. In the case of `CN(C)S(=O)(=O)c1ccc(S(=O)(=O)Nc2cccc(F)c2N2CCC(CN3C4COCC3C4)CC2)cc1` [Compound A-778, N4-3-fluoro-2-[4-(3-oxa-6-azabicyclo[3.1.1]heptan-6-ylmethyl)piperidin-1-yl]phenyl-N1,N1-dimethylbenzene-1,4-disulfonamide], the AC50 is reported as at most 2 µM. `CC(c1ccc(S(=O)(=O)Nc2ccccc2N2CCC(CN3C[C@@H](C)O[C@@H](C)C3)CC2)cc1)C1CC1` (stereo partly drawn) [Compound A-779, 4-(1-cyclopropylethyl)-N-[2-(4-{[(2R,6S)-2,6-dimethylmorpholin-4-yl]methyl}piperidin-1-yl)phenyl]benzene-1-sulfonamide] gave an AC50 of at most 2 µM. `C[C@@H]1CN(CC2CCN(c3c(F)cccc3NS(=O)(=O)c3ccc4c(c3)OC(C)(C)C4)CC2)C[C@H](C)O1` [Compound A-780, N-[2-(4-{[(2R,6S)-2,6-dimethylmorpholin-4-yl]methyl}piperidin-1-yl)-3-fluorophenyl]-2,2-dimethyl-2,3-dihydro-1-benzofuran-6-sulfonamide] was tested, and the AC50 was at most 2 µM. For `C[C@@H]1CN(CC2(C)CCN(c3c(F)cccc3NS(=O)(=O)c3ccc(S(=O)(=O)N(C)C)cc3)CC2)C[C@H](C)O1` [Compound A-781, N4-[2-(4-{[(2R,6S)-2,6-dimethylmorpholin-4-yl]methyl}-4-methylpiperidin-1-yl)-3-fluorophenyl]-N1,N1-dimethylbenzene-1,4-disulfonamide], the AC50 was at most 2 µM. Compound `C[C@@H]1CN(CC2CCN(c3c(F)cccc3[C@@H](C)S(=O)(=O)c3ccc(S(=O)(=O)N(C)C)cc3)CC2)C[C@H](C)O1` [Compound A-782, 4-[(1R)-1-[2-(4-{[(2R,6S)-2,6-dimethylmorpholin-4-yl]methyl}piperidin-1-yl)-3-fluorophenyl]ethanesulfonyl]-N,N-dimethylbenzene-1-sulfonamide] has an AC50 of at most 2 µM. Compound `C[C@@H]1CN(CC2CCN(c3c(F)cccc3[C@H](C)S(=O)(=O)c3ccc(S(=O)(=O)N(C)C)cc3)CC2)C[C@H](C)O1` [Compound A-783, 4-[(1S)-1-[2-(4-{[(2R,6S)-2,6-dimethylmorpholin-4-yl]methyl}piperidin-1-yl)-3-fluorophenyl]ethanesulfonyl]-N,N-dimethylbenzene-1-sulfonamide] has an AC50 of at most 2 µM.
